PubChem BioAssay (NCI)
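Compound exposure: 48 hours, 5 concentrations, 96-well plates. At the GI50, growth is halved. TGI marks complete inhibition of growth.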

How the values were obtained:
Experiment in all cases: NCI-60 cell line screen, 48 h
786-0 renal = system: 786-0 renal
A498 renal = system: A498 renal
A549 NSCLC = system: A549 NSCLC
ACHN renal = system: ACHN renal
COLO 205 colon = system: COLO 205 colon
DU-145 prostate = system: DU-145 prostate
EKVX NSCLC = system: EKVX NSCLC
HCT-116 colon = system: HCT-116 colon
HCT-15 colon = system: HCT-15 colon
HOP-62 NSCLC = system: HOP-62 NSCLC
HOP-92 NSCLC = system: HOP-92 NSCLC
HS 578T breast = system: HS 578T breast
HT29 colon = system: HT29 colon
IGROV1 ovarian = system: IGROV1 ovarian
K-562 leukemia = system: K-562 leukemia
KM12 colon = system: KM12 colon
LOX IMVI melanoma = system: LOX IMVI melanoma
M14 melanoma = system: M14 melanoma
MALME-3M melanoma = system: MALME-3M melanoma
MCF7 breast = system: MCF7 breast
MDA-MB-231 breast = system: MDA-MB-231 breast
MDA-MB-435 = system: MDA-MB-435
MDA-N = system: MDA-N
MOLT-4 leukemia = system: MOLT-4 leukemia
NCI-H226 lung = system: NCI-H226 lung
NCI-H23 lung = system: NCI-H23 lung
NCI-H522 lung = system: NCI-H522 lung
NCI/ADR-RES ovarian = system: NCI/ADR-RES ovarian
OVCAR-3 ovarian = system: OVCAR-3 ovarian
OVCAR-5 ovarian = system: OVCAR-5 ovarian
OVCAR-8 ovarian = system: OVCAR-8 ovarian
PC-3 prostate = system: PC-3 prostate
RPMI-8226 leukemia = system: RPMI-8226 leukemia
SF-268 CNS = system: SF-268 CNS
SF-295 CNS = system: SF-295 CNS
SK-MEL-2 melanoma = system: SK-MEL-2 melanoma
SK-MEL-28 melanoma = system: SK-MEL-28 melanoma
SK-MEL-5 melanoma = system: SK-MEL-5 melanoma
SK-OV-3 ovarian = system: SK-OV-3 ovarian
SN12C renal = system: SN12C renal
SNB-19 CNS = system: SNB-19 CNS
SNB-75 CNS = system: SNB-75 CNS
SR leukemia = system: SR leukemia
SW-620 colon = system: SW-620 colon
TK-10 renal = system: TK-10 renal
U251 CNS = system: U251 CNS
UACC-62 melanoma = system: UACC-62 melanoma
UO-31 renal = system: UO-31 renal
CAKI-1 renal = system: CAKI-1 renal
CCRF-CEM leukemia = system: CCRF-CEM leukemia
HCC-2998 colon = system: HCC-2998 colon
HL-60(TB) leukemia = system: HL-60(TB) leukemia
NCI-H460 lung = system: NCI-H460 lung
RXF 393 renal = system: RXF 393 renal
SF-539 CNS = system: SF-539 CNS
T-47D breast = system: T-47D breast
UACC-257 melanoma = system: UACC-257 melanoma
BT-549 breast = system: BT-549 breast
OVCAR-4 ovarian = system: OVCAR-4 ovarian

## CSC1=N/C(=C\c2ccco2)C(=O)N1CN1CCCCC1
786-0 renal
  TGI: > 100 µM
A498 renal
  TGI: > 100 µM
A549 NSCLC
  TGI: > 100 µM
ACHN renal
  TGI: > 100 µM
COLO 205 colon
  TGI: > 100 µM
DU-145 prostate
  TGI: > 100 µM
EKVX NSCLC
  TGI: > 100 µM
HCT-116 colon
  TGI: > 100 µM
HCT-15 colon
  TGI: > 100 µM
HOP-62 NSCLC
  TGI: > 100 µM
HOP-92 NSCLC
  TGI: 87.2 µM
HS 578T breast
  TGI: > 100 µM
HT29 colon
  TGI: > 100 µM
IGROV1 ovarian
  TGI: > 100 µM
K-562 leukemia
  TGI: > 100 µM
KM12 colon
  TGI: > 100 µM
LOX IMVI melanoma
  TGI: > 100 µM
M14 melanoma
  TGI: > 100 µM
MALME-3M melanoma
  TGI: > 100 µM
MCF7 breast
  TGI: > 100 µM
MDA-MB-231 breast
  TGI: > 100 µM
MDA-MB-435
  TGI: > 100 µM
MDA-N
  TGI: > 100 µM
MOLT-4 leukemia
  TGI: > 100 µM
NCI-H226 lung
  TGI: > 100 µM
NCI-H23 lung
  TGI: > 100 µM
NCI-H522 lung
  TGI: > 100 µM
NCI/ADR-RES ovarian
  TGI: > 100 µM
OVCAR-3 ovarian
  TGI: > 100 µM
OVCAR-5 ovarian
  TGI: > 100 µM
OVCAR-8 ovarian
  TGI: > 100 µM
PC-3 prostate
  TGI: > 100 µM
RPMI-8226 leukemia
  TGI: > 100 µM
SF-268 CNS
  TGI: > 100 µM
SF-295 CNS
  TGI: > 100 µM
SK-MEL-2 melanoma
  TGI: > 100 µM
SK-MEL-28 melanoma
  TGI: > 100 µM
SK-MEL-5 melanoma
  TGI: > 100 µM
SK-OV-3 ovarian
  TGI: > 100 µM
SN12C renal
  TGI: > 100 µM
SNB-19 CNS
  TGI: > 100 µM
SNB-75 CNS
  TGI: > 100 µM
SR leukemia
  TGI: > 100 µM
SW-620 colon
  TGI: > 100 µM
TK-10 renal
  TGI: > 100 µM
U251 CNS
  TGI: > 100 µM
UACC-62 melanoma
  TGI: > 100 µM
UO-31 renal
  TGI: > 100 µM

## CCOC(=O)[C@@H]1ON2O[C@H](OC3CCCC3(c3ccccc3)c3ccccc3)C[C@H]3OC(=O)[C@@H]1C32 (stereo partly specified)
786-0 renal
  TGI: > 100 µM
A498 renal
  TGI: 95.9 µM
A549 NSCLC
  TGI: 76.6 µM
ACHN renal
  TGI: > 100 µM
CAKI-1 renal
  TGI: 46 µM
CCRF-CEM leukemia
  TGI: 78.3 µM
COLO 205 colon
  TGI: > 100 µM
DU-145 prostate
  TGI: > 100 µM
EKVX NSCLC
  TGI: > 100 µM
HCC-2998 colon
  TGI: > 100 µM
HCT-116 colon
  TGI: > 100 µM
HCT-15 colon
  TGI: > 100 µM
HL-60(TB) leukemia
  TGI: 59.1 µM
HOP-62 NSCLC
  TGI: > 100 µM
HOP-92 NSCLC
  TGI: > 100 µM
HS 578T breast
  TGI: > 100 µM
HT29 colon
  TGI: > 100 µM
IGROV1 ovarian
  TGI: > 100 µM
K-562 leukemia
  TGI: > 100 µM
KM12 colon
  TGI: 85.4 µM
LOX IMVI melanoma
  TGI: 86.7 µM
M14 melanoma
  TGI: > 100 µM
MCF7 breast
  TGI: 91.4 µM
MDA-MB-231 breast
  TGI: > 100 µM
MDA-MB-435
  TGI: 97.9 µM
MDA-N
  TGI: > 100 µM
MOLT-4 leukemia
  TGI: > 100 µM
NCI-H226 lung
  TGI: > 100 µM
NCI-H23 lung
  TGI: 65.8 µM
NCI-H460 lung
  TGI: > 100 µM
NCI-H522 lung
  TGI: > 100 µM
NCI/ADR-RES ovarian
  TGI: > 100 µM
OVCAR-3 ovarian
  TGI: > 100 µM
OVCAR-5 ovarian
  TGI: > 100 µM
OVCAR-8 ovarian
  TGI: > 100 µM
RPMI-8226 leukemia
  TGI: > 100 µM
RXF 393 renal
  TGI: 36.5 µM
SF-268 CNS
  TGI: > 100 µM
SF-295 CNS
  TGI: > 100 µM
SF-539 CNS
  TGI: > 100 µM
SK-MEL-5 melanoma
  TGI: > 100 µM
SK-OV-3 ovarian
  TGI: > 100 µM
SN12C renal
  TGI: > 100 µM
SNB-75 CNS
  TGI: > 100 µM
SR leukemia
  TGI: 99.2 µM
SW-620 colon
  TGI: > 100 µM
T-47D breast
  TGI: 80 µM
TK-10 renal
  TGI: > 100 µM
U251 CNS
  TGI: > 100 µM
UACC-257 melanoma
  TGI: > 100 µM
UACC-62 melanoma
  TGI: > 100 µM
UO-31 renal
  TGI: > 100 µM

## NC(=O)c1ccc2c(-c3ccnc(NCCCO)n3)c(-c3ccc(F)cc3)nn2c1
786-0 renal
  GI50: > 25 µM
  TGI: > 25 µM
A498 renal
  GI50: 7.24 µM
  TGI: > 25 µM
A549 NSCLC
  GI50: > 23 µM
  TGI: > 25 µM
ACHN renal
  GI50: > 17.1 µM
  TGI: > 25 µM
BT-549 breast
  GI50: > 25 µM
  TGI: > 25 µM
CAKI-1 renal
  GI50: > 25 µM
  TGI: > 25 µM
CCRF-CEM leukemia
  GI50: > 25 µM
  TGI: > 25 µM
COLO 205 colon
  GI50: > 20.6 µM
  TGI: > 25 µM
DU-145 prostate
  GI50: > 22.8 µM
  TGI: > 25 µM
EKVX NSCLC
  GI50: > 25 µM
  TGI: > 25 µM
HCC-2998 colon
  GI50: > 25 µM
  TGI: > 25 µM
HCT-116 colon
  GI50: > 25 µM
  TGI: > 25 µM
HCT-15 colon
  GI50: > 25 µM
  TGI: > 25 µM
HL-60(TB) leukemia
  GI50: > 21.9 µM
  TGI: > 25 µM
HOP-62 NSCLC
  GI50: > 25 µM
  TGI: > 25 µM
HOP-92 NSCLC
  GI50: > 25 µM
  TGI: > 25 µM
HS 578T breast
  GI50: > 25 µM
  TGI: > 25 µM
HT29 colon
  GI50: > 21.2 µM
  TGI: > 25 µM
IGROV1 ovarian
  GI50: 12.9 µM
  TGI: > 25 µM
K-562 leukemia
  GI50: > 25 µM
  TGI: > 25 µM
KM12 colon
  GI50: > 25 µM
  TGI: > 25 µM
LOX IMVI melanoma
  GI50: > 25 µM
  TGI: > 25 µM
M14 melanoma
  GI50: > 25 µM
  TGI: > 25 µM
MALME-3M melanoma
  GI50: > 25 µM
  TGI: > 25 µM
MCF7 breast
  GI50: > 16.9 µM
  TGI: > 25 µM
MDA-MB-231 breast
  GI50: > 25 µM
  TGI: > 25 µM
MDA-MB-435
  GI50: > 18.3 µM
  TGI: > 25 µM
MOLT-4 leukemia
  GI50: > 25 µM
  TGI: > 25 µM
NCI-H226 lung
  GI50: > 25 µM
  TGI: > 25 µM
NCI-H23 lung
  GI50: > 25 µM
  TGI: > 25 µM
NCI-H460 lung
  GI50: > 25 µM
  TGI: > 25 µM
NCI-H522 lung
  GI50: > 25 µM
  TGI: > 25 µM
NCI/ADR-RES ovarian
  GI50: > 25 µM
  TGI: > 25 µM
OVCAR-3 ovarian
  GI50: 18.6 µM
  TGI: > 25 µM
OVCAR-4 ovarian
  GI50: > 25 µM
  TGI: > 25 µM
OVCAR-5 ovarian
  GI50: > 25 µM
  TGI: > 25 µM
OVCAR-8 ovarian
  GI50: > 25 µM
  TGI: > 25 µM
PC-3 prostate
  GI50: > 25 µM
  TGI: > 25 µM
RPMI-8226 leukemia
  GI50: > 25 µM
  TGI: > 25 µM
RXF 393 renal
  GI50: 21.4 µM
  TGI: > 25 µM
SF-268 CNS
  GI50: > 22.2 µM
  TGI: > 25 µM
SF-295 CNS
  GI50: > 25 µM
  TGI: > 25 µM
SF-539 CNS
  GI50: > 25 µM
  TGI: > 25 µM
SK-MEL-2 melanoma
  GI50: > 25 µM
  TGI: > 25 µM
SK-MEL-28 melanoma
  GI50: > 25 µM
  TGI: > 25 µM
SK-MEL-5 melanoma
  GI50: > 25 µM
  TGI: > 25 µM
SK-OV-3 ovarian
  GI50: > 24.2 µM
  TGI: > 25 µM
SN12C renal
  GI50: > 25 µM
  TGI: > 25 µM
SNB-19 CNS
  GI50: > 25 µM
  TGI: > 25 µM
SNB-75 CNS
  GI50: > 10 µM
  TGI: > 25 µM
SR leukemia
  GI50: > 25 µM
  TGI: > 25 µM
SW-620 colon
  GI50: > 25 µM
  TGI: > 25 µM
T-47D breast
  GI50: > 25 µM
  TGI: > 25 µM
TK-10 renal
  GI50: > 18.6 µM
  TGI: > 25 µM
U251 CNS
  GI50: > 25 µM
  TGI: > 25 µM
UACC-257 melanoma
  GI50: > 25 µM
  TGI: > 25 µM
UACC-62 melanoma
  GI50: > 25 µM
  TGI: > 25 µM
UO-31 renal
  GI50: 5.9 µM
  TGI: > 25 µM
